Patent US20250345492A1, “AN ANTIBACTERIAL POLYPEPTIDE COMPOUND, A MEDICAL DEVICE, HYDROGEL AND USE THEREOF” (priority 2020, published 2025)
≈ marks a conversion by molar mass, not a printed value. Like-named read-outs stand apart in the source and are kept apart here. Ends that are not written are not given here. Peptide text beside a SMILES is read from it.

Columns and labels:
[1] = test system: human cervical cancer cell Hela; experiment: Cytotoxicity, MTT colorimetry; format: cell-based
Method: (§1) For cytotoxicity determination, the MTT colorimetry was used to evaluate the effects of the compounds on the proliferation of human cervical cancer cell Hela, human embryonic renal epithelial cell HEK293 and mouse mononuclear macrophage RAW264.7.
(§2) Taking compounds 2, 8, 9, 13 and 15 of the present invention as examples, the cytotoxicity of the antibacterial polypeptide compounds was analyzed. Three cell lines were employed for the present invention, namely human cervical cancer cell Hela, human embryonic renal epithelial cell HEK293 and mouse mononuclear macrophage RAW264.7. Hela cells were cultured in RPMI 1640 medium with 10% newborn calf serum, HEK293 cells and RAW264.7 cells were cultured in DMEM medium with 10% fetal bovine serum. Simply, cells (1×10^4 cells/well) were inoculated to a 96-well plate and incubated in an incubator set to 5% CO2 at 37° C. After 24 hours, compounds of different concentrations were added and incubated in the 5% CO2 incubator. After 24 hours, 20 μL of MTT solution with a concentration of 5 mg/mL was added to each well and incubated for 4 hours. After that, the medium was removed with a pipet, and 150 μL of DMSO added to dissolve the purple-blue formazan crystals. The solution was shaken in an oscillator for 5 mins before detecting the absorbance value at 570 nm using the ELISA reader, and then the survival rate was calculated with the formula: (OD dosing group/OD control group)×100% (n=3).

[2] = test system: human embryonic renal epithelial cell HEK293; experiment: Cytotoxicity, MTT colorimetry; format: cell-based
Method: as §1, §2

[3] = test system: mouse mononuclear macrophage RAW264.7; experiment: Cytotoxicity, MTT colorimetry; format: cell-based
Method: as §1, §2

[4] = Acute toxicity in mice; design: species or system Kunming mice; conditions: mouse, in vivo, ip, intraperitoneal injection, Karber method
Method: Acute toxicity of the compounds was determined by measuring the acute toxicity in mice with the compounds.
Taking compounds 2, 8, 9, 13 and 15 of the present invention as examples, […]. The mice used in this test were Kunming mice, which were placed in constant-temperature environment (22±1° C.) and could freely obtain water and food. Simply, 132 healthy Kunming mice were randomly divided into 11 groups, with 12 mice in each group (half male and half female), wherein, 5 groups were intraperitoneally injected with 0.2 ml of the compounds of different doses (100-1000 mg/kg), and the control group was intraperitoneally injected with normal saline. In this experiment, melittin was used as a reference control, and the other 5 groups were intraperitoneally injected with melittin of different doses (10-32 mg/kg). The state of mice was observed and recorded after 2 hours of administration, and then observed twice a day for 14 days, and the survival rates of the mice were recorded.

[5] = test system: E. coli (ATCC 25922)
Description: (§3) With respect to the determination of antibacterial activity and antifungal activity of the antibacterial polypeptide compounds, the bacterial strains employed included: E. coli (ATCC 25922), E. coli (ATCC 43837), Pseudomonas aeruginosa (ATCC 27853), Klebsiella pneumoniae (ATCC 700603), Cronobacter sakazakii (ATCC 29544), Staphylococcus aureus (ATCC 29213), Bacillus subtilis (ATCC 23857) and Staphylococcus epidermidis (ATCC 12228); and the fungal strains employed included Candida albicans (ATCC 14053), Candida glabrata (ATCC 2001), Candida parapsilosis (ATCC 22019), Candida tropicalis (ATCC 750) and Candida krusei (ATCC 6258), all of which were standard strains from American Type Culture Collection. In addition, drug-resistant strains S-1a, S-2a, S-3a, S-4a, E-1b, E-2b, E-3b, E-4b, E-5b, P-1c, P-2c, P-3c, P-4c, P-5c, and clinically isolated fungal strains Candida glabrata 2-1 and Candida albicans 14-1, 14-2 and 14-3 were employed, all which were clinically isolated.
(§4) Simply, a proper amount of the cryopreserved bacterium or fungus was added to fresh MH/SD medium, and cultured on a shaker overnight at 180 rpm at 37° C. The obtained cells were seeded again and cultured on a shaker for 4-5 hours to obtain cells in logarithmic phase. The resulting cells were added to a 96-well plate (1×10^5 CFU/ml, 100 μL/well), and then 100 μL of polypeptide with different concentrations (1-256 μM) twice the final concentrations was added to corresponding well according to the 2-fold serial dilution method. The fresh medium was used as a negative control, which was prepared in triplicate for each concentration. After dosing, the 96-well plate was placed in an incubator at constant 37° C. and humidity for 12 hours to observe the results. According to naked eye observations, the concentration of the compound in the first transparent well following the turbid wells was recorded as the MIC of the compound, namely, the MIC value of the compound to the bacterium or fungus.

[6] = test system: Bacillus subtilis (ATCC 23857)
Description: as §3, §4

[7] = test system: C. albicans ATCC14053
Description: as §3, §4

[8] = test system: S-1a, clinical isolated drug-resistant strain MRSA; conditions: strain S-1a (MRSA)
Description: as §3, §4

[9] = test system: E-2b, clinical isolated drug-resistant strain ESBL; conditions: strain E-2b (ESBL)
Description: as §3, §4

[10] = test system: E-4b, clinical isolated drug-resistant strain ESBL; conditions: strain E-4b (ESBL)
Description: as §3, §4

[11] = test system: Pseudomonas aeruginosa (ATCC 27853); conditions: standard strain
Description: as §3, §4

[12] = test system: P-5c, clinical isolated drug-resistant strain PA; conditions: strain P-5c (PA)
Description: as §3, §4

[13] = test system: S-3a, clinical isolated drug-resistant strain MRSA; conditions: strain S-3a (MRSA)
Description: as §3, §4

[14] = test system: C. parapsilosis ATCC2001
Description: as §3, §4

[15] = test system: P-4c, clinical isolated drug-resistant strain PA; conditions: strain P-4c (PA)
Description: as §3, §4

[16] = test system: S-2a, clinical isolated drug-resistant strain MRSA; conditions: strain S-2a (MRSA)
Description: as §3, §4

[17] = test system: Cronobacter sakazakii (ATCC 29544)
Description: as §3, §4

[18] = test system: C. glabrata ATCC22019
Description: as §3, §4

[19] = test system: E-1b, clinical isolated drug-resistant strain ESBL; conditions: strain E-1b (ESBL)
Description: as §3, §4

[20] = test system: S-4a, clinical isolated drug-resistant strain MRSA; conditions: strain S-4a (MRSA)
Description: as §3, §4

[21] = test system: C. tropicalis ATCC750
Description: as §3, §4

[22] = test system: E-3b, clinical isolated drug-resistant strain ESBL; conditions: strain E-3b (ESBL)
Description: as §3, §4

[23] = test system: Staphylococcus epidermidis (ATCC 12228)
Description: as §3, §4

[24] = test system: P-3c, clinical isolated drug-resistant strain PA; conditions: strain P-3c (PA)
Description: as §3, §4

[25] = test system: P-1c, clinical isolated drug-resistant strain PA; conditions: strain P-1c (PA)
Description: as §3, §4

[26] = test system: E-5b, clinical isolated drug-resistant strain ESBL; conditions: strain E-5b (ESBL)
Description: as §3, §4

[27] = test system: C. krusei ATCC6258
Description: as §3, §4

[28] = test system: Staphylococcus aureus (ATCC 29213)
Description: as §3, §4

[29] = test system: P-2c, clinical isolated drug-resistant strain PA; conditions: strain P-2c (PA)
Description: as §3, §4

| Molecule | LD50 [4] | MIC [8] | MIC [9] | MIC [10] | MIC P. aerugmosa ATCC27853 [11] | MIC [12] | MIC [13] | MIC [15] | MIC [16] | MIC [19] | MIC [20] | MIC [22] | MIC [24] | MIC [25] | MIC [26] | MIC [29] | also measured |
| --- | --- | --- | --- | --- | --- | --- | --- | --- | --- | --- | --- | --- | --- | --- | --- | --- | --- |
| CC(C)C[C@H](NC(=O)[C@H](CCCCN)NC(=O)[C@H](CC(C)C)NC(=O)[C@H](CO)NC(=O)[C@H](CC(C)C)NC(=O)[C@H](CCCN)NC(=O)[C@H](Cc1ccccc1)NC(=O)[C@@H]1CCCN1)C(N)=O [Compound 2, Pro-Phe-Orn-Leu-Ser-Leu-Lys-Leu-NH2] (HELM PEPTIDE1{P.F.[Orn].L.S.L.K.L.[am]}$$$$V2.0) | > 1000 mg/kg | 64 µM (≈ 59.5 µg/mL) | 16 µM (≈ 14.9 µg/mL) | 8 µM (≈ 7.44 µg/mL) | 8 µM (≈ 7.44 µg/mL) | 8 µM (≈ 7.44 µg/mL) | 64 µM (≈ 59.5 µg/mL) | 8 µM (≈ 7.44 µg/mL) | 64 µM (≈ 59.5 µg/mL) | 16 µM (≈ 14.9 µg/mL) | 64 µM (≈ 59.5 µg/mL) | 16 µM (≈ 14.9 µg/mL) | 8 µM (≈ 7.44 µg/mL) | 8 µM (≈ 7.44 µg/mL) | 8 µM (≈ 7.44 µg/mL) | 8 µM (≈ 7.44 µg/mL) | effect on proliferation (inhibitory activity) ([1]; Hela cell line, MTT, 24 hours): no inhibitory activity; effect on proliferation (inhibitory activity) ([2]; HEK293 cell line, MTT, 24 hours): no inhibitory activity; effect on proliferation (inhibitory activity) ([3]; RAW 264.7 cell line, MTT, 24 hours): no inhibitory activity; MIC C. coli ATCC25922 ([5]; standard strain): 16 µM (≈ 14.9 µg/mL); MIC B. subtilis ATCC23857 ([6]; standard strain): 16 µM (≈ 14.9 µg/mL); MIC C. albicans ATCC14053 ([7]; fungus): 32 µM (≈ 29.8 µg/mL); MIC C. parapsilosis ATCC2001 ([14]; fungus): 16 µM (≈ 14.9 µg/mL); MIC C. sakazakii ATCC29544 ([17]; standard strain): 32 µM (≈ 29.8 µg/mL); MIC C. glabrata ATCC22019 ([18]; fungus): 32 µM (≈ 29.8 µg/mL); MIC C. tropicalis ATCC750 ([21]; fungus): 32 µM (≈ 29.8 µg/mL); MIC S. epidermidis ATCC12228 ([23]; standard strain): 16 µM (≈ 14.9 µg/mL); MIC C. krusei ATCC6258 ([27]; fungus): 32 µM (≈ 29.8 µg/mL); MIC S. aureus ATCC29213 ([28]; standard strain): 64 µM (≈ 59.5 µg/mL) |
| PWKLSLHL-NH2 [Compound 8] | > 1000 mg/kg | 64 µM | 16 µM | 16 µM | 16 µM | 8 µM | 64 µM | 8 µM | 64 µM | 16 µM | 64 µM | 16 µM | 8 µM | 16 µM | 16 µM | 8 µM | effect on proliferation (inhibitory activity) [1]: no inhibitory activity; effect on proliferation (inhibitory activity) [2]: no inhibitory activity; effect on proliferation (inhibitory activity) [3]: no inhibitory activity; MIC C. coli ATCC25922 ([5]; ATCC 25922): 16 µM; MIC B. subtilis ATCC23857 ([6]; ATCC 23857): 16 µM; MIC C. albicans ATCC14053 ([7]; ATCC14053): 16 µM; MIC C. parapsilosis ATCC2001 ([14]; ATCC2001): 16 µM; MIC C. sakazakii ATCC29544 ([17]; ATCC 29544): 16 µM; MIC C. glabrata ATCC22019 ([18]; ATCC22019): 16 µM; MIC C. tropicalis ATCC750 ([21]; ATCC750): 16 µM; MIC S. epidermidis ATCC12228 ([23]; ATCC 12228): 32 µM; MIC C. krusei ATCC6258 ([27]; ATCC6258): 32 µM; MIC S. aureus ATCC29213 ([28]; ATCC 29213): 64 µM |
| gentamicin [reference compound] |  |  | 50 µM | 50 µM |  | 50 µM |  | 50 µM |  | 50 µM |  | 50 µM | 25 µM | 50 µM | 50 µM | 50 µM |  |
| CC[C@H](C)[C@H](NC(=O)CN)C(=O)NCC(=O)N[C@@H](C)C(=O)N[C@H](C(=O)N[C@@H](CC(C)C)C(=O)N[C@@H](CCCCN)C(=O)N[C@H](C(=O)N[C@@H](CC(C)C)C(=O)N[C@H](C(=O)N[C@H](C(=O)NCC(=O)N[C@@H](CC(C)C)C(=O)N1CCC[C@H]1C(=O)N[C@@H](C)C(=O)N[C@@H](CC(C)C)C(=O)N[C@H](C(=O)N[C@@H](CO)C(=O)N[C@@H](Cc1c[nH]c2ccccc12)C(=O)N[C@H](C(=O)N[C@@H](CCCCN)C(=O)N[C@@H](CCCNC(=N)N)C(=O)N[C@@H](CCCCN)C(=O)N[C@@H](CCCNC(=N)N)C(=O)N[C@@H](CCC(N)=O)C(=O)N[C@@H](CCC(N)=O)C(N)=O)[C@@H](C)CC)[C@@H](C)CC)[C@@H](C)O)[C@@H](C)O)C(C)C)C(C)C [melittin magainin, melittin, reference compound] |  |  |  |  |  |  |  |  |  |  |  |  |  |  |  |  | LD50 at 14 days ([4]; both sexes, Kunming): 20 mg/kg |
